The nature of data set [1]: Solubility studies at 500 ppm in solvent, monomers and simulated formulation. The procedure:
The solubilities of exemplary compounds 8 and 9 were evaluated in various solvent systems in comparison with copper tetraphenylporphyrin (Cu-TPP) as a control.
• 1. Weigh 3 to 4 mg of the Copper porphyrin compound into an 8 mL scintillation vial • 2. In the case of one solvent or monomer, dilute to 500 ppm with the solvent or monomer, add a stir bar, and stir mixture overnight. • 3. In the case of multiple solvents, add the best solvent for the copper porphyrin first, add a stir bar and stir for 1 hour. Add the other solvents and stir overnight. • 4. Evaluate solution miscibility after stirring overnight.

A short description of data set [2]: UV-visible transmittance, molar extinction coefficient of Soret band. The class given is physicochemical. The settings on record: concentrations 300 to 1000 ppm. The procedure:
^1H-NMR spectra were recorded on Bruker 600 MHz spectrometer. CD3OD (Methanol-d3) and DMSO-d6 (Dimethyl sulfoxide-d6) were used as solvents. UPLC of porphyrins was acquired on ACQUITY UPLC H-Class PLUS UPLC with Waters PDA detector, using Phenomenex Jupiter® 5 μm C18 300 Å, LC Column (150×2.0 mm). LC-MS of porphyrins was acquired on The Thermo Scientific™ Q Exactive™ HF hybrid quadrupole-Orbitrap mass spectrometer, using Phenomenex Aeris™ 3.6 μm WIDEPORE C4 200 Å, LC Column (50×2.1 mm). UV-vis spectra were obtained on Perkin Elmer Lambda 850 UV-Vis Spectrophotometer.
Compound 8 also characterized by UV-visible transmittance at concentrations ranging from 300 to 1000 ppm (FIG. 15). Molar extinction coefficients of 490,000-544,000 M-1 cm-1 for Soret band are in agreement with literature values for similar metallated porphyrins (Taniguchi, M.; Lindsey, J. S. Photochemistry and Photobiology, 2018, 94, 290-327).
Compound 9 also characterized by UV-visible transmittance at concentrations ranging from 300 to 1000 ppm (FIG. 16). Molar extinction coefficients of 490,000-544,000 M^−1 cm^−1 for Soret band are in agreement with literature values for similar metallated porphyrins (Taniguchi, M.; Lindsey, J. S. Photochemistry and Photobiology, 2018, 94, 290-327).

Data set [3] is described as follows: Stability under simulated photocuring conditions (450 nm LED, photoinitiator). The class given is physicochemical. Here is the method: (§1) The stabilities of exemplary compounds 8 and 9 were evaluated under various conditions in the presence of initiator and monomer under curing conditions in comparison with copper tetraphenylporphyrin (Cu-TPP) and zinc tetraphenylporphyrin (Zn-TPP) as controls.
Experimental Procedure for Photo-Curing System:
• (A) for Stability Test without Monomers • 1. Parent solution: Dimethylacetamide (DMAC) solutions (200-500 ppm) of corresponding porphyrins, namely ZnTPP (200 ppm), CuTPP (200 ppm), Cu-TBP-Am (500 ppm), and Cu-TBP-MAm (500 ppm) were prepared in amber glass vial. The solutions were allowed to stir at room temperature for about 0.5 hour to provide homogeneous solutions. Photoinitiator (0.6 wt %) was added to each solution (under yellow light), and the solution was stirred for another 1 hour. • 2. Solution “BEFORE” Thermal Treatment & UV-VIS Measurement: The solution was transferred into 100 μm quartz cell and UV-Vis spectra were recorded using Perkin Elmer Lambda 850 UV-Vis Spectrophotometer. The spectrum was regarded as “before”. • 3. Photocuring of Parent Solution: Each quartz cell was exposed to 450 nm LED light with intensity of 55 mW/cm^2 for 30 s. • 4. Solution “AFTER” photocuring & UV-VIS Measurement: UV-Vis spectra of solutions in 100 μm quartz cell exposed to LED light were recorded using Perkin Elmer Lambda 850 UV-Vis Spectrophotometer. The spectrum was regarded as “after”. • 5. % T Calculation: % Loss is expressed as % T increase at the specific wavelength of Soret band for each porphyrin solution. • (B) For Stability Test with Monomers • 1. Parent solution: Cu-TBP-Am and Cu-TBP-MAm were dissolved in DMA (30 wt %), TRIS (30 wt %) and 1-PrOH (40 wt %) in amber glass vial to afford 500 ppm porphyrin solutions. The solutions were allowed to stir at room temperature for about 0.5 hour to provide homogeneous solutions. Photoinitiator (0.6 wt %) was added to each solution (under yellow light), and the solution was stirred for another 1 hour. • 2. Solution “BEFORE” Thermal Treatment & UV-VIS Measurement: The solution was transferred into 100 μm quartz cell and UV-Vis spectra were recorded using Perkin Elmer Lambda 850 UV-Vis Spectrophotometer. The spectrum was regarded as “before”. • 3. Photocuring of Parent Solution: Each quartz cell was exposed to 450 nm LED light with intensity of 55 mW/cm^2 for 30 s. • 4. Solution “AFTER” photocuring & UV-VIS Measurement: UV-Vis spectra of solutions in 100 μm quartz cell exposed to LED light were recorded using Perkin Elmer Lambda 850 UV-Vis Spectrophotometer. The spectrum was regarded as “after”. • 5. % T Calculation: % Loss is expressed as % T increase at the specific wavelength of Soret band for each porphyrin solution. Experimental Procedure for Thermal-Curing System: • (A) for Stability Test without Monomers • 1. Parent solution: Dimethylacetamide (DMAC) solutions (500 ppm) of corresponding porphyrins, namely ZnTPP, CuTPP, Cu-TBP-Am, and Cu-TBP-MAm were prepared in amber glass vial. The solutions were allowed to stir at room temperature for about 0.5 hours to provide homogeneous solutions. Vazo 64 (0.5 wt %) was added to each solution, and the solution was stirred for another 10 minutes. Each solution was bubbled with nitrogen for 5 minutes to remove oxygen. • 2. […] The solution was transferred into 1 cm quartz cell and UV-Vis spectra were recorded using Perkin Elmer Lambda 850 UV-Vis Spectrophotometer. […]

Data set [4] can be described thus: Stability under simulated thermal curing conditions (Vazo 64, 80° C., 2 hours). The settings on record: 500 ppm, Vazo 64 0.5 wt %; for Stability under simulated thermal curing, without monomers: DMAC. The class given is physicochemical. Here is the method:
as §1
• (A) for Stability Test without Monomers • 1. Parent solution: Dimethylacetamide (DMAC) solutions (200-500 ppm) of corresponding porphyrins, namely ZnTPP (200 ppm), CuTPP (200 ppm), Cu-TBP-Am (500 ppm), and Cu-TBP-MAm (500 ppm) were prepared in amber glass vial. The solutions were allowed to stir at room temperature for about 0.5 hour to provide homogeneous solutions. Photoinitiator (0.6 wt %) was added to each solution (under yellow light), and the solution was stirred for another 1 hour. • 2. Solution “BEFORE” Thermal Treatment & UV-VIS Measurement: The solution was transferred into 100 μm quartz cell and UV-Vis spectra were recorded using Perkin Elmer Lambda 850 UV-Vis Spectrophotometer. The spectrum was regarded as “before”. • 3. […] Solution “AFTER” photocuring & UV-VIS Measurement: UV-Vis spectra of solutions in 100 μm quartz cell exposed to LED light were recorded using Perkin Elmer Lambda 850 UV-Vis Spectrophotometer. The spectrum was regarded as “after”. • 5. % T Calculation: % Loss is expressed as % T increase at the specific wavelength of Soret band for each porphyrin solution. • (B) For Stability Test with Monomers • 1. […] Solution “BEFORE” Thermal Treatment & UV-VIS Measurement: The solution was transferred into 100 μm quartz cell and UV-Vis spectra were recorded using Perkin Elmer Lambda 850 UV-Vis Spectrophotometer. […] Solution “AFTER” photocuring & UV-VIS Measurement: UV-Vis spectra of solutions in 100 μm quartz cell exposed to LED light were recorded using Perkin Elmer Lambda 850 UV-Vis Spectrophotometer. The spectrum was regarded as “after”. • 5. % T Calculation: % Loss is expressed as % T increase at the specific wavelength of Soret band for each porphyrin solution. […] The solution was transferred into 1 cm quartz cell and UV-Vis spectra were recorded using Perkin Elmer Lambda 850 UV-Vis Spectrophotometer. […]

Setting [5] is: 500 ppm, 1-Propanol, stirred overnight.
Where [6] appears, read: 500 ppm, monomer DMA, stirred overnight.
Where [7] appears, read: 500 ppm, monomer HEMA, stirred overnight.
[8] abbreviates: 500 ppm, simulated formulation 1-PrOH/DMA/TRIS (1:1:1).
The mark [9] stands for this setting: 500 ppm, simulated formulation 1-PrOH/DMA/TRIS/Silicone oil (1:1:1:1).
The mark [10] stands for this setting: DMAC, photoinitiator 0.6 wt %, 450 nm LED 55 mW/cm^2 for 30 s.

Results on four molecules are retold here after US12724175B2, “Contact lens with optical prophylaxis” (High Performance Optics, Inc., priority 2021, dated 2026).

Where two headings read alike, the source gives them in different places.

Turning to `C=C(C)C(=O)NCCC[N+](C)(C)Cc1ccc(/C2=C3\C=CC(=N3)/C(c3ccc(C[N+](C)(C)CCCNC(=O)C(=C)C)cc3)=c3/cc/c4[n]3[Cu][n]3c2ccc3/C(c2ccc(C[N+](C)(C)CCCNC(=O)C(=C)C)cc2)=C2/C=CC(=N2)\C=4c2ccc(C[N+](C)(C)CCCNC(=O)C(=C)C)cc2)cc1` [Compound 8, Cu(II) tetra-(dimethylaminopropylmethacrylamidophenyl) porphine tetrabromide], the Solubility result in data set [1] is “Soluble”. The “Molar extinction coefficients for Soret band” value in data set [2] was 490,000-544,000 M^−1 cm^−1. For the same molecule, the “Stability (% T increase at Soret band) under simulated photocuring, without monomers” value in data set [3] is “show % T increase”.

As for “copper tetraphenylporphyrin [Cu-TPP, reference compound]”, the Solubility result in data set [1] (setting [5]) is on record as “Insoluble”; in data set [1] (setting [6]) it was “Soluble”; in data set [1] (setting [7]), “Insoluble”; in data set [1] (setting [8]), “Insoluble”; in data set [1] (setting [9]) it was “Insoluble”. Moreover, the “Stability (% T increase at Soret band) under simulated photocuring, without monomers” value in data set [3] is recorded as “significantly more stable than ZnTPP”.

As for `C=CC(=O)NCCC[N+](C)(C)Cc1ccc(/C2=C3\C=CC(=N3)/C(c3ccc(C[N+](C)(C)CCCNC(=O)C=C)cc3)=c3/cc/c4[n]3[Cu][n]3c2ccc3/C(c2ccc(C[N+](C)(C)CCCNC(=O)C=C)cc2)=C2/C=CC(=N2)\C=4c2ccc(C[N+](C)(C)CCCNC(=O)C=C)cc2)cc1` [Compound 9, Cu(II) tetra-(dimethylaminopropylacrylamidophenyl) porphine tetrabromide], the Solubility result is reported as “Soluble” in data set [1] (setting [5]); “Partially” in data set [1] (setting [6]); “Soluble” in data set [1] (setting [7]); “Soluble” in data set [1] (setting [8]); “Partially” in data set [1] (setting [9]). Also, in data set [2], the “Molar extinction coefficients for Soret band” value is 490,000-544,000 M^−1 cm^−1. The “Stability (% T increase at Soret band) under simulated photocuring, with monomers” value in data set [3] (DMA/TRIS/1-PrOH, 500 ppm, photoinitiator 0.6 wt %, 450 nm LED 55 mW/cm^2 for 30 s) is given as “not observed”. Further, the “Stability (% T increase at Soret band) under simulated photocuring, without monomers” value in data set [3] (setting [10]) was “show % T increase”. For the same molecule, the “Stability under simulated thermal curing, with monomers” value in data set [4] (DMA/TRIS/1-PrOH) is “much better stability”. In data set [4], the “Stability under simulated thermal curing, without monomers” value is on record as “much better stability”.

For the molecule `C1=Cc2nc1c(-c1ccccc1)c1ccc([n-]1)c(-c1ccccc1)c1nc(c(-c3ccccc3)c3ccc([n-]3)c2-c2ccccc2)C=C1.[Zn+2]` [ZnTPP, zinc tetraphenylporphyrin, reference compound], the “Stability (% T increase at Soret band) under simulated photocuring, without monomers” value in data set [3] (setting [10]) is recorded as “CuTPP is significantly more stable than ZnTPP”. The “Stability under simulated thermal curing, without monomers” value in data set [4] is reported as “difference is not observed”.
